From article PMC5742583, “A Functional Analysis on the Interspecies Interaction between Mouse LFA-1 and Human Intercellular Adhesion Molecule-1 at the Cell Level” (Frontiers in Immunology, 2017)
Like-named read-outs stand apart in the source and are kept apart here.

What was measured:
[1] = test system: mouse B cells (ICAM-1/LFA-1 interaction); experiment: Homotypic B cell aggregation assay; format: cell-based; settings: overnight 37°C, clumping index 1-10
Procedure: To obtain these cells, mice were sacrificed by cervical dislocation, the spleens were removed, and splenocytes were isolated and resuspended in RPMI 10% FBS at a final concentration of 10^6 cells/ml. Cells were treated with 10 µg/ml PHA and 1 µg/ml ionomycin to activate LFA-1 and incubated at 37°C 5% CO2 overnight in flat bottom 96-well plates (10^5 cells) in the presence of peptides from LFA-1 and c-Myc (control) 250 µM, D1D2, D1D2Fc, and human IgG1 10 µg, EGTA 1 mM and lovastatin 100 µM. A qualitative aggregation assay was carried out as described ([36], [41]) with a slight modification. Briefly, positive control stimulated cell samples were arbitrarily assigned a clumping index of 10 and lovastatin samples an index of 1. Test samples were ranked from 1 to 10 based upon degree of clumping relative to stimulated and lovastatin-treated samples. Results were verified by a blind independent rating performed by a second observer.
Fresh mouse B cells were obtained from splenocytes and stimulated with PHA and ionomycin to induce homotypic adhesion. The results were quantified by establishing a clumping index that represents the degree of cell aggregation, which reflects the inhibition efficiency (Figure 3B). Cell aggregation was ranked by a clumping index from 1 to 10 based on the degree of aggregation in comparison with the stimulated cells (positive control, clumping index = 10).
Figure 3 Effect of human (ICAM-1) on the aggregation of mouse spleen cells. (A) Splenocytes isolated from mice were non treated (a) or activated with PHA (b–i) as described in Section “Experimental Procedures” and further incubated overnight with (b) medium; (c) IgG1; (d) c-Myc peptide; (e) EGTA; (f) lovastatin; (g) D1D2; (h) D1D2Fc; (i) mouse LFA-1 peptide CD11a235–259. Images were taken with an optical microscope (original magnification, 10×). Representative images from two independent experiments with similar results are shown. (B) The graph represents the rate of agglutination depending on the inhibitory effect on ICAM-1/LFA-1 interaction. Cells stimulated with PHA and ionomycin, which served as a positive control, were arbitrarily assigned agglutination index 10, which represents a percentage of aggregation between 90 and 100%. Homotypic aggregation was classified from 1 to 10 depending on the degree of aggregation relative to cells stimulated. The result was verified by a second independent observer. Values are presented as mean ± SEM of two separate experiments performed by duplicate. Statistical analysis was performed using two-way analysis of variance with Bonferroni’s posttest comparing with c-Myc peptide control. *p < 0.05; ***p < 0.001.

ICAM-1/LFA-1 interaction = settings: cited from earlier work
Procedure: Human and mouse LFA-1-derived peptides (human: CD11a237–261; mouse: CD11a235–259) were purchased from GenScript (Piscataway, USA) without any modification. […] Besides, incubation cells with a mouse antiCD1 ...

Mac-1 = settings: ref [42], [43]; cited from earlier work
From the text: (§1) In contrast, cell aggregates were clearly visible in cultures after stimulation (Figure 3A, b). […] Macrophage phenotype was confirmed by testing surface antigens by flow cytometry. Monocyte-derived macrophages expressed higher levels of HLA-DR and CD14 than undifferentiated monocytes ([51]). In addition, expression of CD54 (ICAM-1) was diminished in comparison with freshly isolated monocytes (Figure 6B). […] As shown ...

VLA-4 = settings: ref [42], [43]; cited from earlier work
From the text: as §1

[2] = test system: K562 cells killed by human NK cells (ICAM-1/LFA-1); experiment: NK cell-mediated cytotoxicity on K562; format: cell-based; settings: peptide 250 µM, preincubation 45 min 37°C; effector:target 3:1, 4 h; annexin-V/7-AAD by FACS; vs c-Myc control; two experiments by duplicate
Procedure: The effect of human and mouse peptides derived from LFA-1 on ICAM-1/LFA-1 dependent cell–cell contact was analyzed by performing a cell cytotoxicity assay using human primary NK cells and the NK cell sensitive human leukemia K562. Primary activated human NK cells were generated by culturing PBMCs with mitomycin C inactivated R69 cells for 5 days and enriched by MACS using anti-CD56 antibodies as previously described ([39]). Cell cytotoxicity induced by NK cells on K562 was analyzed by flow cytometry as previously described ([39]). Briefly, K562 cells were preincubated with medium alone, in the presence of 250 µM of human and mouse peptides from LFA-1 or D1D2 (15 µg) for 45 min at 37°C. Then, NK cells were added at 3:1 effector:target cell ratio and incubated for 4 h at 37°C, 5% CO2. Subsequently, phosphatidylserine exposure and 7-AAD uptake were analyzed by FACS using the annexin-V/7-AAD kit from Immunostep. As a control, the cells were incubated alone with the inhibitors to evaluate their possible toxicity, which was not significant in any case.
Figure 4 Inhibition of natural killer (NK) cell-mediated cytotoxicity by human intercellular adhesion molecule-1. […] Cell death was analyzed by measuring translocation of PS by flow cytometry in the negative population for CFSE as described in experimental procedures. […]

D1D2Fc = molecular target: T1, D1D2Fc (Homo sapiens, UniProt P05362); settings: peptide derived from human LFA-1, observed previously, ref [34], cited from earlier work
T1 construct: The synthetic first two domains of ICAM-1 alone (D1D2) or linked with human IgG1 Fc region (D1D2Fc) were expressed in Escherichia coli; made in house; host or cells: Escherichia coli
T1 sequence (P05362 with tags, fused parts or gaps limits assumed): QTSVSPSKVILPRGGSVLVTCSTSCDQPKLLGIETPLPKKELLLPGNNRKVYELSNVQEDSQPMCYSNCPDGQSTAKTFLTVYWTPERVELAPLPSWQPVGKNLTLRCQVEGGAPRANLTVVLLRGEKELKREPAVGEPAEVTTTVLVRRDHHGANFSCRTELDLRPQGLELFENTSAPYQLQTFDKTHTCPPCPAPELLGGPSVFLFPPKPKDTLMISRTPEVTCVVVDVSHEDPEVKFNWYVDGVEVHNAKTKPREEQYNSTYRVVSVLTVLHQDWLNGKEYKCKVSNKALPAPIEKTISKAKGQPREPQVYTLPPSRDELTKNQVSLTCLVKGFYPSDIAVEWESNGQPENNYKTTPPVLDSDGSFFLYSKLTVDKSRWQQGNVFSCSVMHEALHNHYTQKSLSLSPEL
From the text: In a previous work, we have shown that purified human recombinant ICAM-1 was able to interact with peptides derived from human LFA-1 ([34]). […] The complex formation was net exothermic as would be expected for a reaction in which specific intermolecular interactions are established. Besides, if there were no interaction, there would not be any signal. This value was obtained by fitting to the binding isotherm a 1:n interaction model, which assumes a single type of binding sites.

[3] = test system: gp33-pulsed EL4 cells killed by mouse Tc cells (ICAM-1/LFA-1); experiment: CD8+ T cell-mediated cytotoxicity on EL4; format: cell-based; settings: ICAM-1 proteins, several (increasing) amounts, preincubation 45 min 37°C; effector:target 10:1, 4 h; annexin-V/7-AAD by FACS; three experiments by duplicate
human monocytes = experiment: Human monocyte adhesion to plastic (MTT); format: cell-based; settings: human D1D2 and D1D2Fc, different concentrations, 37°C overnight, three experiments by duplicate
Procedure: (§2) Monocytes were isolated from human peripheral blood mononuclear cells (PBMCs), obtained from healthy donors (Blood and Tissue Bank of Aragon; approved by the CEICA, number: C.I.PI11/006) by density gradient centrifugation using Ficoll-Paque (GE healthcare). PBMCs were resuspended at a concentration of 2.5 × 10^6 cells/ml in RPMI medium supplemented with 1% heat-inactivated human AB serum (Sigma). Cells were cultured in a Petri dish for 2 h at 37°C 5% CO2. […]
(§3) Freshly isolated monocytes or differentiated macrophages were washed twice with PBS and incubated with trypsin (PAN Biotech) for 30 min at 37°C 5% CO2. […] Next day, every well was washed twice with PBS, complete RPMI medium was added and the number or adherent remaining cells was quantified by a MTT colorimetric test ([38]). […]
(§4) Figure 6 LFA-1 is involved in human macrophage adhesion. […] (B) Macrophage phenotype was analyzed by flow cytometry testing the expression of HL-DR, CD14, CD54, and CD11a. […] Subsequently, every well was washed twice with PBS to remove non-adherent cells and quantification of cell adhesion was carried out by MTT as described in Section “Experimental Procedures.” Values are presented as mean ± SEM of three independent experiments performed by duplicate. […]

human macrophages = experiment: Human macrophage adhesion to plastic (MTT); format: cell-based; settings: human D1D2 and D1D2Fc, different concentrations, 37°C overnight, three experiments by duplicate
Procedure: as §2, §3, §4

[4] = molecular target: human ICAM-1 first two domains linked with human IgG1 Fc region (D1D2Fc) (human); experiment: ITC; 150 µM peptide injected (28 injections of 10 µl) into 12 µM D1D2Fc in the cell, PBS, 25°C, VP-ITC; fitted with a 1:n interaction model with a single type of binding sites

Which “inhibition of B cell aggregation” value ([1]; EGTA 1 mM, splenocytes activated with PHA and ionomycin) does the source give for `O=C(O)CN(CCOCCOCCN(CC(=O)O)CC(=O)O)CC(=O)O` [EGTA, reference compound] here?
Its value is “inhibit completely the aggregation”.

And the “specific block of ICAM-1/LFA-1 interaction” value (ICAM-1/LFA-1 interaction; ref [42], [43])?
The value was “specifically block ICAM-1/LFA-1 interaction”.

What about the “effect on Mac-1” value (Mac-1) of the same molecule?
Its value is “without affecting”.

And the “effect on VLA-4” value (VLA-4)?
Its value is “without affecting”.

For “ITDGEATDSGNIDAAKDIIRYIIGI [CD11a237–261, human LFA-1-derived peptide, purchased from GenScript without any modification]”, which “inhibition of NK cell-mediated cell death of K562” value [2] is on record?
The value was “blocked NK cell-mediated cell death”.

What about the “affinity for human ICAM-1 (D1D2Fc), in words” value (D1D2Fc) of the same molecule?
Its value is “similar”.

What about the “affinity for human ICAM-1 (D1D2Fc), in words” value (D1D2Fc; listed as peptide of human LFA-1) of the same molecule?
Its value is “highest affinity”.

And the “ability to block ICAM-1/LFA-1 interaction” value (ICAM-1/LFA-1 interaction; ref [36])?
Its value is “ability to block ICAM-1/LFA-1 interaction”.

B1: Human ICAM-1: human ICAM-1 (D1D2Fc and D1D2) in this paper's tests; purified human ICAM-1 in ref [29] (protein, UniProt P05362 28-532, looked up)
Intercellular adhesion …: QTSVSPSKVILPRGGSVLVTCSTSCDQPKLLGIETPLPKKELLLPGNNRKVYELSNVQEDSQPMCYSNCPDGQSTAKTFLTVYWTPERVELAPLPSWQPVGKNLTLRCQVEGGAPRANLTVVLLRGEKELKREPAVGEPAEVTTTVLVRRDHHGANFSCRTELDLRPQGLELFENTSAPYQLQTFVLPATPPQLVSPRVLEVDTQGTVVCSLDGLFPVSEAQVHLALGDQRLNPTVTYGNDSFSAKASVSVTAEDEGTQRLTCAVILGNQSQETLQTVTIYSFPAPNVILTKPEVSEGTEVTVKCEAHPRAKVTLNGVPAQPLGPRAQLLLKATPEDNGRSFSCSATLEVAGQLIHKNQTRELRVLYGPRLDERDCPGNWTWPENSQQTPMCQAWGNPLPELKCLKDGTFPLPIGESVTVTRDLEGTYLCRARSTQGEVTRKVTVNVLSPRYEIVIITVVAAAVIMGTAGLSTYLYNRQRKIKKYRLQQAQKGTPMKPNTQATPP
For B1, which “inhibition of B cell aggregation” value ([1]; protein 10 µg, splenocytes activated with PHA 10 µg/ml and ionomycin 1 µg/ml, two experiments by duplicate) is on record?
The value was “significantly inhibited adhesion”.

And the “inhibition of Tc cell-mediated cell death of EL4” value [3]?
The value was “completely blocked cell death”.

And the “inhibition of adhesion of human monocytes” value (human monocytes)?
Its value is “completely inhibited”.

What about the “inhibition of adhesion of human macrophages” value (human macrophages) of the same molecule?
Its value is “completely inhibited”.

With ITDGEASDKGNISAAHDITRYIIGI [mouse LFA-1-derived peptide CD11a(235-259)] as the molecule, how does the Kd [4] read?
Its Kd is 70 nM.
